According to paper PMC4072508, “Genome-Wide Prediction and Validation of Peptides That Bind Human Prosurvival Bcl-2 Proteins” (PLoS Computational Biology, 2014):
“And” between values parts separate entries of the source, which are not always exact repeats. Identical values can stand only once. Like-named read-outs stand apart in the source and are kept apart here. No end group written: not given here.

How the values were obtained:
Assay in all cases: Fluorescence polarization direct binding
Bfl-1 = target: T1, Bfl-1 (Homo sapiens, UniProt Q16548)
T1 construct: myc- Bfl-1 SPOT array & FP; made in house
T1 sequence (Q16548 with tags, fused parts or gaps): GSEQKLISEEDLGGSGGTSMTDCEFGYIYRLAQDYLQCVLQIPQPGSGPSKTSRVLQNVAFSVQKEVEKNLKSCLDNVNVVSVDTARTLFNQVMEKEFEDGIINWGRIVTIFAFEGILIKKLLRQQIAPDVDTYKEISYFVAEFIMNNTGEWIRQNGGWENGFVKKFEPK
Experimental: (§1) Peptides were purified by reverse-phase HPLC using a C18 column and a linear water/acetonitrile gradient. We re-analyzed the purified peptide by mass spectrometry if there was not a single well-defined peak in HPLC chromatogram.
(§2) Fluorescence polarization (FP) assays were done at 25°C in assay buffer (20 mM NaPO4, 50 mM NaCl, 1 mM EDTA, 0.001% Triton X (v/v), pH 7.8). […] For all FP experiments, the total well volume was 120 µl. […] Anisotropy was measured using a Spectramax M5 plate reader from Molecular Devices.
(§3) Direct binding curves were fit using Pylab/Scipy/Optimize to a single-site binding model utilized previously.
(§4) ^1Best-fit KD values determined by combining all replicate titration curves and fitting to a direct binding model (see Methods). […] Values with an X followed by a number indicate the highest concentration (the number, in nM) for which signal was measured yet no binding was detected.

Mcl-1 = target: T2, Mcl-1 (Homo sapiens, UniProt Q07820)
T2 construct: myc-Mcl-1 SPOT array & FP; made in house
Experimental: as §1, §2, §3, §4

Bcl-2 = target: T3, Bcl-2 (Homo sapiens, UniProt P10415, DEL53-91)
T3 construct: myc- Bcl-2 FP; made in house
Experimental: as §1, §2, §3, §4

Bcl-w = target: T4, Bcl-w (Homo sapiens, UniProt Q92843, Q133R)
T4 construct: myc-Bcl-w SPOT array & FP; made in house
T4 sequence (Q92843 with tags, fused parts or gaps Q133R): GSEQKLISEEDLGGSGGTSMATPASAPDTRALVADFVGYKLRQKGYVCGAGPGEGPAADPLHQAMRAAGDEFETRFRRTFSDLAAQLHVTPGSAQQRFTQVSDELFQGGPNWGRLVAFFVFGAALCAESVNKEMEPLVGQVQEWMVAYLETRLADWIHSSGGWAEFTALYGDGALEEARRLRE
Experimental: as §1, §2, §3, §4

Bcl-xL = target: T5, Bcl-xL (Homo sapiens, UniProt Q07817)
T5 construct: myc-Bcl-xL SPOT array & FP; made in house
Experimental: as §1, §2, §3, §4

[1] = FP direct binding, 10 nM FAM-labeled peptide, receptor titrated, 25°C, pH 7.8, fit of all replicate titrations, X+number in a cell = highest concentration (nM) measured with no binding detected, given here as >, SPNS1 fit to raw fluorescence, read-out: Best-fit KD, Bfl-1
[2] = benchmark classification of peptides newly characterized in this study, read-out: Binder class, Bfl-1
[3] = Binder class, Mcl-1, benchmark classification of peptides newly characterized in this study
[4] = FP direct binding, 10 nM FAM-labeled peptide, receptor titrated, 25°C, pH 7.8, fit of all replicate titrations, X+number in a cell = highest concentration (nM) measured with no binding detected, given here as >, SPNS1 fit to raw fluorescence
[5] = FP direct binding, 10 nM FAM-labeled peptide, receptor titrated, 25°C, pH 7.8, fit of all replicate titrations, X+number in a cell = highest concentration (nM) measured with no binding detected, given here as >, SPNS1 fit to raw fluorescence, read-out: Best-fit KD, Bcl-2
[6] = benchmark classification of peptides newly characterized in this study, read-out: Binder class, Bcl-2
[7] = FP direct binding, 10 nM FAM-labeled peptide, receptor titrated, 25°C, pH 7.8, fit of all replicate titrations, X+number in a cell = highest concentration (nM) measured with no binding detected, given here as >, SPNS1 fit to raw fluorescence, read-out: Best-fit KD, Bcl-w
[8] = benchmark classification of peptides newly characterized in this study, read-out: Binder class, Bcl-w
[9] = benchmark classification of peptides newly characterized in this study, read-out: Binder class, Bcl-xL
[10] = FP direct binding, 10 nM FAM-labeled peptide, receptor titrated, 25°C, pH 7.8, fit of all replicate titrations, X+number in a cell = highest concentration (nM) measured with no binding detected, given here as >, SPNS1 fit to raw fluorescence, read-out: Best-fit KD, Bcl-xL

T3 sequence (P10415 with tags, fused parts or gaps DEL53-91): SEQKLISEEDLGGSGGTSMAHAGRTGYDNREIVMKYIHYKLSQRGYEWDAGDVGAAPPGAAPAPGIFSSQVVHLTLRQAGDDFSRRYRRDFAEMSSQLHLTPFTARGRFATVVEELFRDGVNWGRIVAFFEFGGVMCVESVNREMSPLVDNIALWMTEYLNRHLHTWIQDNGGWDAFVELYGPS
T5 sequence (Q07817 with tags, fused parts or gaps): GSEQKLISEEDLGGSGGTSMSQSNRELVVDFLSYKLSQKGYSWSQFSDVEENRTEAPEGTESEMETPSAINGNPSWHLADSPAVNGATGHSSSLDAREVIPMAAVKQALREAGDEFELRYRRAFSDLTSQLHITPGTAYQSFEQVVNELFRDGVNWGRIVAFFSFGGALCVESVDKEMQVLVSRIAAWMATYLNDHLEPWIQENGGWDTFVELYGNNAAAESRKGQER
T2 sequence (Q07820 with tags, fused parts or gaps): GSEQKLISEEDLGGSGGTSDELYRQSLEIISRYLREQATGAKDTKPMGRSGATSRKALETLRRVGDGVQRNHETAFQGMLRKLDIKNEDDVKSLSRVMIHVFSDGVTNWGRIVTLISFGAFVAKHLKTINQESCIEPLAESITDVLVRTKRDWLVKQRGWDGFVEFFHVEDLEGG

Substance | Kd (Bfl-1; [1]) | Kd (Bfl-1; [2]) | Kd (Mcl-1; [3]) | Kd (Mcl-1; [4]) | Kd (Bcl-2; [5]) | Kd (Bcl-2; [6]) | Kd (Bcl-w; [7]) | Kd (Bcl-w; [8]) | Kd (Bcl-xL; [9]) | Kd (Bcl-xL; [10]) | further results
GSGAWGLLLRRVGDDVLVHLLAR-NH2 [TERT] | 99 nM | < 1000 nM | < 1000 nM | 69 nM | 49 nM | < 1000 nM | 992 nM | < 1000 nM | 1000 to 10000 nM | – | –
IIHKLAMQLRHIGDNIDHRMVRE-NH2 [PXT1] | < 30 nM and 1 nM | < 1000 nM | < 1000 nM | < 30 nM and 0.9 nM | < 30 nM and 14 nM | < 1000 nM | < 30 nM and 5 nM | < 1000 nM | < 1000 nM | < 30 nM and 8 nM | –
KKMTLSEIYRWIADNFPYYKNAG-NH2 [FOXJ2] | > 3370 nM | > 10000 nM | > 10000 nM | > 10000 nM | 130 nM | < 1000 nM | 85 nM | < 1000 nM | < 1000 nM | 103 nM | Best-fit KD, Bcl-2 (Bcl-2; [4]): bound tightly; Best-fit KD, Bcl-w (Bcl-w; [4]): bound tightly; Best-fit KD, Bcl-xL (Bcl-xL; [4]): bound tightly
KREKLVEILRNIGDERTMVFVET-NH2 [DDX4] | > 3370 nM | > 10000 nM | < 1000 nM | 142 nM | > 3050 nM | < 1000 nM | > 4350 nM | 1000 to 10000 nM | > 10000 nM | > 4000 nM | Best-fit KD, Mcl-1 (Mcl-1; [4]): bound tightly
LMARPAVALHFQSIADGFKEAVRYVL-NH2 [SOS2] | > 3290 nM | > 10000 nM | > 10000 nM | > 4000 nM | 3290 nM | 1000 to 10000 nM | 5380 nM | 1000 to 10000 nM | > 10000 nM | > 6900 nM | –
LRLFLAQRLRWLADSAPASRATA-NH2 [NBEAL2] | 3270 nM | 1000 to 10000 nM | 1000 to 10000 nM | 3810 nM | 16 nM | < 1000 nM | 29 nM | < 1000 nM | < 1000 nM | 10 nM | Best-fit KD, Bcl-2 (Bcl-2; [4]): bound tightly; Best-fit KD, Bcl-w (Bcl-w; [4]): bound tightly; Best-fit KD, Bcl-xL (Bcl-xL; [4]): bound tightly
LSDGLPVHLANIADELTQKKKMF-NH2 [AGBL2] | > 4670 nM | > 10000 nM | > 10000 nM | > 5030 nM | > 100000 nM | 1000 to 10000 nM | 5870 nM | 1000 to 10000 nM | > 10000 nM | > 4000 nM | –
PILENPEILRKTADDFLNRIALT-NH2 [CCH] | > 9610 nM | > 10000 nM | > 10000 nM | > 4000 nM | 7130 nM | 1000 to 10000 nM | 1920 nM | 1000 to 10000 nM | > 10000 nM | > 5720 nM | –
QRKHEGFERDLAALGDKVNSLGETAE-NH2 [SPTAN1] | > 3370 nM | > 10000 nM | > 10000 nM | 3850 nM | > 3050 nM | 1000 to 10000 nM | > 4350 nM | > 10000 nM | > 10000 nM | > 7000 nM | –
RLVQQSKALKELADELQERAQRP-NH2 [TRIM58] | – | – | > 10000 nM | – | – | – | – | – | – | – | Kd (Bfl-1): > 4670 nM; Kd (Bfl-1; Binder class, Bfl-1, benchmark classification of peptides newly characterized in this study): > 10000 nM; Kd (Mcl-1): > 6070 nM; Kd (Bcl-2): 975 nM; Kd (Bcl-2; Binder class, Bcl-2, benchmark classification of peptides newly characterized in this study): < 1000 nM; Kd (Bcl-w): 361 nM; Kd (Bcl-w; Binder class, Bcl-w, benchmark classification of peptides newly characterized in this study): > 10000 nM; Kd (Bcl-xL): 4550 nM; Kd (Bcl-xL; Binder class, Bcl-xL, benchmark classification of peptides newly characterized in this study): 1000 to 10000 nM
RSMVFARHLREVGDEFRSRHLNS-NH2 [POFUT2] | > 2280 nM | > 10000 nM | > 10000 nM | > 10000 nM | 98 nM | < 1000 nM | 98 nM | < 1000 nM | < 1000 nM | 39 nM | Best-fit KD, Bcl-2 (Bcl-2; [4]): bound tightly; Best-fit KD, Bcl-w (Bcl-w; [4]): bound tightly; Best-fit KD, Bcl-xL (Bcl-xL; [4]): bound tightly
RVEQMAIQIKEVGDRVNYIKRSL-NH2 [TRPM7] | 1900 nM | 1000 to 10000 nM | > 10000 nM | 592 nM | 124 nM | < 1000 nM | 2490 nM | < 1000 nM | < 1000 nM | 679 nM | –
RYRHGAPAEQLRHLADMLTTKWATLQ-NH2 [PLEKHH1] | > 5680 nM | > 10000 nM | > 10000 nM | 977 nM | 1500 nM | < 1000 nM | 1400 nM | > 10000 nM | < 1000 nM | 650 nM | –
SKFVILSAHKLVFIGDTLSRQAKAAD-NH2 [BCAR1] | 4680 nM | 1000 to 10000 nM | > 10000 nM | 912 nM | 2990 nM | 1000 to 10000 nM | 3610 nM | < 1000 nM | 1000 to 10000 nM | 2540 nM | –
SYMVLAPVFGYLGDRYNRKYLMA-NH2 [SPNS1] | 278 nM | < 1000 nM | < 1000 nM | 19 nM | 28 nM | < 1000 nM | 871 nM | < 1000 nM | < 1000 nM | 96 nM | –
